Experimental data from patent US9572787B2, “Inhibition of renal fibrosis” (Rhode Island Hospital, priority 2011, dated 2017).

Legend:
[1] = system: obstructive kidney (UUO); assay: UUO model, daily S3I-201 treatment; assay type: in vivo, mouse; conditions: for STAT3 phosphorylation: 10 mg/kg i.p. daily
Method: Unilateral […] obstruction (UUO) model and S3I-201 treatment. The UUO model was established in male C57 black mice that weighed 20-25 g (Jackson Laboratory, Bar Harbor, Me.) as described previously. The contralateral kidneys were used as controls. To examine the efficacy of S3I-201 in renal fibrosis after UUO injury, S3I-201 (10 mg/kg) in 50 μl of dimethyl sulfoxide (DMSO) was intraperitoneally administered to mice immediately after ureter ligation and then given daily for 6 or 13 days. Mice were randomized into 4 groups with 6-7 mice in each group as follows: (1) sham injury with DMSO as vehicle; (2) sham injury with S3I-201; (3) UUO injury with DMSO; (4) UUO injury with S3I-201.
Western blot analysis and Sirius red and immunofluorescent staining were carried out according to standard methods.
(§1) Quantitative real-time PCR. Real time qRT-PCR amplifications were performed in 20 μl reactions. The amplification protocol was as follows: denaturation for 10 minutes and enzyme activation at 95° C., 40 cycles of 95° C.×10 sec, 59° C.×30 sec, and 72° C.×20 sec, followed by one step […] at 72° C. for 5 minutes. Relative mRNA abundance was determined from the ratios of specific mRNA to 18S ribosomal RNA measured in the same samples, and fold change was calculated relative to the group of sham-operated mice with vehicle treatment.
ELISA. Protein levels of TGF-β1, TNF-α, and IL-1β in kidney homogenates were determined using specific sandwich enzyme immunometric assay kits, ELISA Ready-SET-Go (eBioscience, Inc. San Diego, Calif.) as described previously. The results were normalized by total protein content in kidney homogenates.
In situ TUNEL assays. Terminal deoxynucleotidyl transferase biotin-dUTP nick end-labeling (TUNEL) staining was used to detect DNA strand breaks using a detection kit, according to the instructions provided by the manufacturer. The number of TUNEL-positive nuclei per field was evaluated in five fields per section and five sections per kidney.

[2] = system: NRK-49F cells; assay: S3I-201 in cultured renal interstitial fibroblasts (immunoblot, qRT-PCR); assay type: cell-based, rat
Method: as §1, with “Cell culture and treatments. NRK-49F cells were cultured in Dulbecco's modified eagle's medium (DMEM) (Sigma-Aldrich, St. Louis, Mo.) containing 10% fetal bovine serum (FBS), 0.5% penicillin and streptomycin in an atmosphere of 5% CO2 and 95% air at 37° C. Western blot analysis and Sirius red and immunofluorescent staining were carried out according to standard methods. Quantitative” for “Quantitative”

[3] = dose- and time-dependent, 24 h dose series, 50 μM time course

## Cc1ccc(S(=O)(=O)OCC(=O)Nc2ccc(C(=O)O)c(O)c2)cc1 [S3I-201]
[1]; 10 mg/kg daily for 7 days
  apoptosis of interstitial cells (TUNEL): increased apoptosis
  apoptosis of renal tubular cells (TUNEL): did not induce apoptosis
  proliferation of interstitial cells (phospho-histone H3 Ser 10): decreased their proliferation
[1]; 10 mg/kg daily, day 7
  ICAM-1 mRNA expression: reduced
  IL-1β mRNA expression: reduced
  IL-1β protein (ELISA): significantly suppressed
  Sirius red-positive areas: significantly reduced
  TGF-β1 mRNA expression: reduced their levels
  TGF-β1 protein (ELISA): decreased
  TNF-α mRNA expression: reduced
  TNF-α protein (ELISA): significantly suppressed
  TβRI mRNA expression at the basal level: not affected
  TβRII mRNA expression: reduced their levels
  TβRIII mRNA basal level: reduced the basal level
  UUO injury-induced MCP-1 mRNA expression: did not affect
  UUO-induced collagen type 1 mRNA expression: attenuated this response
  basal level of collagen type 1 expression in control kidneys: did not affect
  basal level of α-SMA expression in control kidneys: did not affect
  collagen type 1 expression in obstructive kidneys: decreased collagen type 1 to the basal level
  decrease in expression of ECM components (Sirius red, semi-quantitative): approximately 60%
  expression of snail: did not affect
  expression of β-catenin: did not affect
  fibronectin expression (immunoblot densitometry): blocked
  fibronectin expression (immunostaining): decreased its expression
  leukocyte infiltration (naphthol AS-D chloroacetate esterase staining): reduced leukocyte infiltration to basal levels
  α-SMA expression in obstructive kidneys: inhibited
[1]; 10 mg/kg daily, day 7 and day 14
  total STAT3 expression: not affected
[1]; 10 mg/kg daily, day 14
  collagen type 1 expression: decreased
  α-SMA expression: decreased
[1]; day 7
  STAT3 phosphorylation: largely suppressed
[1]; day 14
  STAT3 phosphorylation: small inhibition
[2]; 100 μM, 3 h
  expression of p-STAT3: complete inhibition
[2]; 5% FBS, 50 μM S3I-201, 6 h
  TGF-β1 mRNA expression: significantly decreased
  TβRII mRNA expression: significantly decreased
  TβRIII mRNA expression: significantly decreased
[2]; 3 h, dose dependent
  expression of p-STAT1: increased
[2]; 3 h, indicated concentrations
  STAT5 phosphorylation: did not affect
[2]; [3]
  expression of fibronectin: dramatically decreased
  expression of α-SMA: dramatically decreased
